Laboratory results as given in patent US20120252855A1, “Methods For Treating Degenerative Diseases/Injuries” (priority 2003, published 2012).

Experiments:
[1] = tested on: Human marrow progenitor CD34+ cells; assay: CD34+ Progenitor Cell Proliferation Assay Experiment 2; assay type: cell-based
Experimental: Human marrow progenitor CD34+ cells were washed in SFEM, counted and brought to 2×10^5/mL in 24-well plates and incubated for 7 days in the presence of compound or rhTpo. Dilutions of 3′-{N′-[1-(3,4-Dimethylphenyl)-3-methyl-5-oxo-1,5-dihydropyrazol-4-ylidene]hydrazino}-2′-hydroxybiphenyl-3-carboxylic acid bis-(monoethanolamine) were made in distilled water to equal 0, 0.3, 1 and 3 uM final concentration. Dilutions of 3-{N′-[1-(3,4-dimethylphenyl)-3-methyl-5-oxo-1,5-dihydropyrazol-4-ylidene]hydrazino}-2-hydroxy-3′-tetrazol-5-ylbiphenyl disodium salt were made in DMSO to equal 0, 0.3, 1 and 3 uM final concentration in 0.1% DMSO. Recombinant human TPO at a final concentration of 100 ng/mL was used as a positive control. At day 7, cells were counted and flow cytometry was performed using FITC-CD34.

[2] = tested on: early CD34+ progenitor cells from human bone marrow; assay: CD34+ Progenitor Cell Proliferation Assay; assay type: cell-based
Experimental: Compounds are tested for their ability in stimulating the survival and proliferation of early CD34+ progenitor cells from human bone marrow. In this assay, purified human CD34+ progenitor cells are incubated in liquid culture with test compounds for up to 7 days and the number of cells expressing the early stem cell marker CD34 are then measured by flow cytometry and compared to untreated cells (see Liu et al. Bone Marrow Transplantation. 24:247-52, 1999).

With `CC1=NN(c2ccc(C)c(C)c2)C(=O)C1=NNc1cccc(-c2cccc(-c3nnn[nH]3)c2)c1O.[Na].[Na]` [3-{N′-[1-(3,4-dimethylphenyl)-3-methyl-5-oxo-1,5-dihydropyrazol-4-ylidene]hydrazino}-2-hydroxy-3′-tetrazol-5-ylbiphenyl disodium salt] the “increase in the number of CD34+ cells” value ([1]; compound at 3 uM in 0.1% DMSO, 7 days, FITC-CD34 flow cytometry) was 3.6 fold.
In the case of “rhTpo: Recombinant human TPO, used as a positive control at 100 ng/mL”, the “increase in the number of CD34+ cells” value ([1]; rhTpo 100 ng/ml positive control, experiment with the bis-(monoethanolamine) salt, day 7) was 15 fold, the “increase in the number of CD34+ cells” value ([1]; rhTpo 100 ng/ml positive control, experiment with the tetrazole disodium salt, day 7) was 3.4 fold and the “increase in the number of CD34+ cells” value ([2]; rhTpo 100 ng/ml, same experiment as E1) was 2 fold.
In the case of `CC1=NN(c2ccc(C(F)(F)F)cc2)C(=O)C1=NNc1cccc(-c2cccc(C(=O)O)c2)c1O` [3′-{N′-[3-methyl-5-oxo-1-(4-trifluoromethylphenyl)-1,5-dihydropyrazol-4-ylidene]hydrazino}-2′-hydroxybiphenyl-3-carboxylic acid], the “increase in the number of CD34+ cells in liquid culture over vehicle controls” value ([2]; compound at 3 uM, days 2, 5 and 7, flow cytometry) was “up to 2 fold”.
For `CC1=NN(c2ccc(C)c(C)c2)C(=O)C1=NNc1cccc(-c2cccc(C(=O)O)c2)c1O.NCCO.NCCO` [3′-{N′-[1-(3,4-Dimethylphenyl)-3-methyl-5-oxo-1,5-dihydropyrazol-4-ylidene]hydrazino}-2′-hydroxybiphenyl-3-carboxylic acid bis-(monoethanolamine)], the “increase in the number of CD34+ cells” value ([1]; compound at 3 uM, dilutions in distilled water, 7 days, FITC-CD34 flow cytometry) was 3 fold.
